Laboratory results taken from patent publication US20170368018A1, “USE OF ELLAGIC ACID DIHYDRATE IN PHARMACEUTICAL FORMULATIONS TO REGULATE BLOOD GLUCOSE LEVELS” (HALO LIFE SCIENCE, LLC, priority 2014, published 2017).

Columns and labels:
[1] = test system: p44/42 MAPK / Phos p44/42 MAPK in C2C12 cells; experiment: p44/42 MAPK:phos p44/42 MAPK ratio by immunocytochemistry, high-content imaging; format: cell-based, mouse; conditions: C2C12, treated 30 minutes, 0.04 nM, FIG. 9
Protocol: (§1) Stimulation of AKT pathways and MAPK pathways in ellagic acid dihydrate, metformin, and insulin treated cell cultures was performed. Insulin stimulates glucose uptake into cells by increasing GLUT4 activation, and AKT, specifically phos-AKT, signaling alters GLUT4 translocation. […] Cellular assays were performed using mouse myoblast C2C12 cells. Relative protein levels of AKT:phos AKT and p44/42 MAPK:phos p44/42 MAPK were determined.
Serum starved cells (1 hr) were treated for 30 minutes with each of the tested compounds. Ratios of phosphorylated to non-phosphorylated proteins were determined using immunocytochemistry labeling (anti-AKT, anti-Phos AKT; or anti-p44/42 MAPK, anti-Phos p44/42 MAPK) on a high-content imaging system (Operetta, Perkin Elmer) using the fluorescent signal of anti-rabbit Alexa 647. Increased phosphorylation is indicated as decrease in signal of AKT:Phos AKT ratio (log2 scale) and p44/42 MAPK:Phos p44/42 MAPK ratio (log2 scale) relative to vehicle treated cells.

[2] = test system: AKT / Phos AKT in C2C12 cells; experiment: AKT:phos AKT ratio by immunocytochemistry, high-content imaging; format: cell-based, mouse; conditions: C2C12, serum starved 1 hr, treated 30 minutes, 4 nM-4 μM, FIG. 8
Protocol: as §1, with “[…] Serum starved cells (1 hr) were treated for 30 minutes with each” for “Relative protein levels”, “the tested compounds.” for “AKT:phos AKT and p44/42 MAPK:phos p44/42 MAPK were determined.”

MEF cells [3] = experiment: Glucose uptake, 2-NBDG labeling, flow cytometry, MEFs; format: cell-based, mouse
Protocol: Cellular assays were performed using mouse myoblast C2C12 cells and MEF cells. […] Increased glucose uptake was indicated as increasing signal of 2-NBDG ([…]) in cells. Glucose uptake assays were carried out in a final incubation volume of 50 μl consisting of, 2-NBDG), (100 μM) in 1× Phosphate Buffered Saline w/Ca+, Mg+ (PBS++). The same buffer was used for washing cells. Insulin was used as a positive control. All testing compounds were prepared in […] and diluted 1:100 for a final concentration of 0.1% DMSO (vehicle). Cells were culture to 70-90% confluence and then washed twice with PBS++. Cells were incubated for 30 minutes at 37° C. in PBS++. Nuclear stain, HCS CellMask stain (blue, Invitrogen), and/or testing compounds (ellagic acid dihydrate, insulin, or vehicle) were added. Cells were incubated for 30 min at 37° C. Cells were washed twice with PBS++and incubated with 2-NBDG for 10 minutes. Cells were washed thrice with PBS++and then imaged in PBS++. Alternatively, the final PBS wash was removed and cells were incubated with Accutase (Invitrogen) for 10 min at 37° C., neutralized with 10% FBS in 1× PBS, and analyzed by flow cytometry. An additional experiment was performed to measure glucose uptake in C2C12 cells exposed to metformin, insulin and ellagic acid dihydrate 2 (batch 2). FIG. 5C. Glucose uptake in ellagic acid dihydrate treated cell culture was measured and compared to glucose uptake under insulin or ellagic acid treatment. […] Flow cytometry results were run in triplicate with 1000 cells per batch.

MEF cells [4] = experiment: Glucose uptake, 2-NBDG labeling, high-content imaging (Operetta), MEFs; format: cell-based, mouse
Protocol: Increased glucose uptake was indicated as increasing signal of 2-NBDG ([…]) in cells. Glucose uptake assays were carried out in a final incubation volume of 50 μl consisting of, 2-NBDG), (100 μM) in 1× Phosphate Buffered Saline w/Ca+, Mg+ (PBS++). The same buffer was used for washing cells. Insulin was used as a positive control. All testing compounds were prepared in 10% DMSO and diluted 1:100 for a final concentration of 0.1% DMSO (vehicle). Cells were culture to 70-90% confluence and then washed twice with PBS++. Cells were incubated for 30 minutes at 37° C. in PBS++. Nuclear stain, HCS CellMask stain (blue, Invitrogen), and/or testing compounds (ellagic acid dihydrate, insulin, or vehicle) were added. Cells were incubated for 30 min at 37° C. Cells were washed twice with PBS++and incubated with 2-NBDG for 10 minutes. Cells were washed thrice with PBS++and then imaged in PBS++. Alternatively, the final PBS wash was removed and cells were incubated with Accutase (Invitrogen) for 10 min at 37° C., neutralized with 10% FBS in 1× PBS, and analyzed by flow cytometry. An additional experiment was performed to measure glucose uptake in C2C12 cells exposed to metformin, insulin and ellagic acid dihydrate 2 (batch 2). FIG. 5C. Glucose uptake in ellagic acid dihydrate treated cell culture was measured and compared to glucose uptake under insulin or ellagic acid treatment. […] Flow cytometry results were run in triplicate with 1000 cells per batch.

[5] = test system: mouse myoblast C2C12 cells; experiment: Glucose uptake, 2-NBDG labeling, flow cytometry, C2C12; format: cell-based
Protocol: Cellular assays were performed using mouse myoblast C2C12 cells and MEF cells. […] Increased glucose uptake was indicated as increasing signal of 2-NBDG ([…]) in cells. Glucose uptake assays were carried out in a final incubation volume of 50 μl consisting of, 2-NBDG), (100 μM) in 1× Phosphate Buffered Saline w/Ca+, Mg+ (PBS++). The same buffer was used for washing cells. Insulin was used as a positive control. All testing compounds were prepared in 10% DMSO and diluted 1:100 for a final concentration of 0.1% DMSO (vehicle). Cells were culture to 70-90% confluence and then washed twice with PBS++. Cells were incubated for 30 minutes at 37° C. in PBS++. Nuclear stain, HCS CellMask stain (blue, Invitrogen), and/or testing compounds (ellagic acid dihydrate, insulin, or vehicle) were added. Cells were incubated for 30 min at 37° C. Cells were washed twice with PBS++and incubated with 2-NBDG for 10 minutes. Cells were washed thrice with PBS++and then imaged in PBS++. Alternatively, the final PBS wash was removed and cells were incubated with Accutase (Invitrogen) for 10 min at 37° C., neutralized with 10% FBS in 1× PBS, and analyzed by flow cytometry. An additional experiment was performed to measure glucose uptake in C2C12 cells exposed to metformin, insulin and ellagic acid dihydrate 2 (batch 2). FIG. 5C.

[6] = test system: GLUT4-GFP in mouse myoblast C2C12 cells; experiment: Localization of glucose transporter GLUT4-GFP, time-lapse confocal microscopy; format: cell-based; conditions: C2C12, 4000 nM
Protocol: Induction of glucose transporter, GLUT-4, in ellagic acid dihydrate treated cell cultures was studied. Cellular assays were performed using mouse myoblast C2C12 cells. The cells were infected with a fusion glucose transporter 4 green fluorescent protein (GLUT4-GFP). This protein allows the visualization of GLUT4 by imaging the GFP under fluorescent time-lapse microscopy. Frames were compiled to produce time-lapse images of cellular changes with no treatment or treatment with insulin. The localization of glucose transporter (GLUT4-GFP) was performed in final incubation volume of 505 μL, consisting of 500 μL of Hank's Buffer (Invitrogen) and 5 μl of tested compounds. Insulin was used as positive controls and vehicle (0.1% DMSO) as the negative control. All test compounds were prepared in 10% DMSO and diluted 1:100 for a final concentration of 0.1% DMSO (vehicle). The cells were rinsed in Hank's Buffer thrice and then incubated in Hank's Buffer at 37° C. for one hour. The test compounds were added (ellagic acid dihydrate, insulin, or vehicle) and the cells were imaged using laser-confocal microscopy (Leica TCS SP5 X) with FITC fluorescent filters to determine changes in GLUT4-GFP localization. Time-lapse images (TIF) were collected and post-processed using Image-J (NIH) for video construction.

mice = experiment: Activity level in mice; format: in vivo, mouse; conditions: observation by the Applicant in treated mice
From the text: Activity levels in mice treated with ellagic acid dihydrate may be quantified by several procedures, such as those outlined in Turri, M. et al.; QTL Analysis Identifies Multiple Behavioral Dimensions in Ethological Tests of Anxiety in Laboratory Mice; Current Biology; 2001; 11(10): 725-734. Two examples of procedures taught therein follows. Gross Locomotor Activity in Home Cage: Mice are caged singly several days prior to home cage activity monitoring and subsequent testing. Activity in home cages are measured during the first 2 hours of the dark cycle on two consecutive days. Two infrared photo emitter-detector pairs, located outside the clear plastic home cage that divide the cage into three equal areas, are used to record gross locomotor activity on the floor of the home cage as the animal breaks the photo beams. The beam-break activity score consists of the square root of the number of beam breaks for each detector summed across the two test days. Magnitude of Activity in Home Cage: Mice are caged singly several days prior to home cage activity monitoring and subsequent testing. Activity in home cages are measured during the first 2 hours of the dark cycle on two consecutive days. An infrared motion detector located above the top of the home cage is employed to converts all motion sensed within the home cage into arbitrary units, based on the magnitude of activity detected.

female SWV mice = experiment: Weight loss and blood glucose in mice, thirty days daily gavage; format: in vivo, mouse; conditions: for body weight lost on average: supplemental pill, gavage daily
Protocol: Weight loss and blood glucose in mice treated with ellagic acid was determined and weight loss and blood glucose in mice treated with ellagic acid dihydrate may be determined by the following procedure. Mice are treated daily for thirty days with ellagic acid or control in the form of a supplemental pill homogenized and suspended in 25% water solution of Cremophor EL. The mice are treated via gavage using the human equivalent dose (LD) of 122.4 mg pill/kg of subject (40.6 mg ellagic acid/kg of the subject), 10× higher dose (HD) of 1224 mg pill/kg of the subject (406 mg ellagic acid/kg of the subject), or control vehicle (25% water solution of Cremophor EL). The LD and HD dose amounts are calculated based on the following assumptions: a human dose is one 603 mg (200 mg ellagic acid) pill/day, taken orally; the average weight of a person is 60 kg, thus, the average dose for a human equals approximately 9.95 mg of the pill (3.3 mg ellagic acid)/kg daily; a mouse equivalent dose requires 12.3 times the human dose per kg. The mice are weighed and treated daily, and blood glucose level are measured every two days for a total one month period.

[7] = test system: female SWV mice with STZ induced diabetes; experiment: Weight loss and blood glucose in mice with STZ induced diabetes; format: in vivo, mouse; conditions: STZ diabetic mice, thirty days
Protocol: Weight loss and blood glucose in diabetes induced mice treated with ellagic acid was determined and weight loss and blood glucose in mice treated with ellagic acid dihydrate may be determined by the following procedures. Induction of Diabetes: Diabetes is induced in mice by intraperitoneal injection with Streptozotocin (STZ 40 mg/kg) daily for five days. The mice are considered hyperglycemic when the glucose level of each dam is above 200 mg/dL. The mice are fasted for 4 hours before STZ injection and glucose measurement. Treatment: The mice are treated daily for thirty days with ellagic acid or control in the form of a supplemental pill homogenized and suspended in 25% water solution of Cremophor EL. The mice are treated for one month via gavage using the human equivalent dose of 122.4 mg pill/kg of subject (40.6 mg ellagic acid/kg of the subject), the human equivalent does of 40.6 mg ellagic acid/kg of the subject using 98% pure ellagic acid, or control vehicle (25% water solution of Cremophor EL). The human equivalent dose is calculated as described in Example 8. Treatments would start two weeks after the last STZ injection in which hyperglycemia is confirmed in the diabetic mice. The mice would be weighed daily and glucose levels would be measured in fasted animals every five days.

Row | Compound | p44/42 MAPK:Phos p44/42 MAPK ratio relative to vehicle treated cells [1] | AKT:Phos AKT ratio (log2 scale) relative to vehicle treated cells [2] | p44/42 MAPK:Phos p44/42 MAPK ratio relative to vehicle treated cells ([1]; 400 nM) | increased glucose uptake relative to vehicle treated cells (MEF cells [3]; 400 nM exposure, fibroblasts, FIG. 4B) [%] | dose effect for increasing glucose uptake (MEF cells [3]; MEFs, flow cytometry, 4 μM-0.04 nM) | glucose uptake (2-NBDG signal) relative to vehicle (MEF cells [3]; MEFs, flow cytometry, FIG. 4A) | dose effect for increasing glucose uptake (MEF cells [4]) | glucose uptake (signal of 2-NBDG) in comparison to vehicle (MEF cells [4]) | increase in glucose uptake in myoblasts relative to fibroblasts ([5]; C2C12 (FIGS. 5A, 5B) versus MEFs (FIGS. 4A, 4B)) [×] | dose effect for increasing glucose uptake ([5]; C2C12, flow cytometry, 4 μM-0.04 nM) | glucose uptake (2-NBDG signal) relative to vehicle ([5]; C2C12, flow cytometry, FIG. 5A) | GLUT4-GFP around the cell nucleus [6] | ruffling of filopodia at the surface of the cell [6] | activity levels (mice) | glucose uptake per unit dose (MEF cells [3]; in vitro conditions, summary statement) | blood glucose (female SWV mice; all treatments (LD, HD) compared to control) | body weight lost on average (female SWV mice; 10× higher dose (HD, 406 mg ellagic acid/kg)) | body weight lost on average (female SWV mice; human equivalent dose (LD, 40.6 mg ellagic acid/kg)) | body weight lost on average ([7]; human equivalent dose, daily) | mean glucose level values, treated versus control mice [7]
1 | CN(C)C(=N)N=C(N)N [metformin] | increased the ratio of p44/42 MAPK | increase in AKT relative to phosphorylation of AKT | – | – | – | – | – | – | – | – | – | – | – | – | – | – | – | – | – | –
2 | insulin: Insulin was used as a positive control [reference compound] | – | −0.5 | increase in p44/42 MAPK | 32 | showed a dose effect | significant increase | showed a dose effect | showed an increase in glucose uptake | ~4 | showed a dose effect | significant increase | decrease in GLUT4-GFP around the cell nucleus | rapid production of numerous projections | – | – | – | – | – | – | –
3 | O=c1oc2c(O)c(O)cc3c(=O)oc4c(O)c(O)cc1c4c23 [ellagic acid] | – | – | – | – | – | – | no such dose effect | – | – | – | – | – | – | increased activity levels | little to no glucose uptake per unit dose | Normal levels of blood glucose | 10.4 % of body weight | 8.9 % of body weight | 11.7 % of body weight | no significant differences
